Laboratory results reported in article PMC6273861, “Synthesis and Determination of Physicochemical Properties of New 3-(4-Arylpiperazin-1-yl)-2-hydroxypropyl 4-Alkoxyethoxybenzoates” (Molecules, 2016).

Key:
[1] = Determination of dissociation constants (pKa) by capillary zone electrophoresis; format: physicochemical; settings: 25 °C, BGE pH 3.9 to 9.2, mean and standard deviation of four measurements, read-out: pKa (exp.)
Protocol: The dissociation constants (pKa) of studied compounds were determined by means of CE. The measured values and values predicted by chemical software (ACD Percepta ver. 2012, Advanced Chemistry Development, Toronto, ON, Canada; MarvinSketch 6.0.6., ChemAxon Kft., Budapest, Hungary) are shown in Table 1. The correlation coefficients of the experimentally determined values were greater than 0.999 and standard deviation equal or less than 0.02 units (n = 4). The experimental values are in the range 6.35–6.92 and the highest values were recorded for the 1-(2-methoxyphenylpiperazine) derivatives 7b, 8b, 9b. The clinically used β-blockers are usually stronger bases, the values of studied compounds are lower due to the presence of piperazine moiety instead of secondary amine group.
The CE experiments were carried out with an Agilent 3D CE (Agilent Technologies) capillary electrophoresis system equipped with an autosampler, automatic injector, photodiode array detector, and an air cooling unit for the capillary. The instrument control and analysis were performed with 3D-CE ChemStation software (Agilent Technologies). Uncoated fused-silica capillary (Agilent Technologies) of 50 µm internal diameter, total length of 33.0 cm and effective length (to the detector) of 24.5 cm was used. The capillary cassette temperature was maintained at 25 °C with air cooling. Three milligrams of the sample were dissolved in 1 mL of 50% methanol and 10 times diluted with appropriate background electrolyte before analysis. Samples were injected hydrodynamically at 40 mbar pressure for 4.0 s. Running voltage was 15 kV of positive polarity. UV detection was performed at 254 nm. As a marker of electroosmotic flow, mesityl oxide was used. The effective mobilities were recorded for BGE pH values in the range of 3.9 to 9.2 (ionic strength equal to 10 mM), 4 runs at 10 different buffer pH values. The effective mobilities (μeff) were calculated according to Equation (3). (3) μeff=LtotLeff/U(1/tmig−1/tEOF) where tmig is the migration time of the analyte and tEOF is the migration time of a neutral marker compound that is of the same velocity as the electroosmotic flow (EOF). Leff is distance from the injection end of capillary to the detector and Ltot is the total length of the capillary over which the voltage U was applied. SigmaPlot for Windows version 11.0 (Systat Software GmbH, Erkrath, Germany) was employed for the nonlinear regression analysis of µeff/pH relationship having characteristic sigmoidal shape with inflection point indicating pKa value.
The pH measurements were taken with a combination glass electrode (HI 1332B, HANNA Instruments, Woonsocket, RI, USA), using a Thermo Orion 370 PerpHect® pH meter (ThermoFisher Scientific).

[2] = Lipophilicity index (log kw7.4, log kw) by RP-HPLC; format: physicochemical; settings: for log kw7.4: RP-HPLC, ZORBAX Extend-C18, pH 7.4, extrapolated to 100% water, mean and standard deviation; for log kw: neutral form, calculated from log kw7.4 and pKa by Equation (2)
Protocol: The lipophilicity indexes log kw7.4 were measured by means of RP-HPLC method. The log kw values were then calculated according to Equation (2) given in Section 3.3. The correlation coefficients were greater than 0.999 with covariance equal or less than 0.03 units (n = 2). The log kw^7.4 values of synthetized compounds were measured by a Dionex Ultimate 3000 (Thermo Fisher Scientific) HPLC system controlled through the Chromeleon® Chromatography Data System (version 7.2). The separation was performed on ZORBAX Extend-C18 (3.5 µm, 3 × 150 mm) column (Agilent Technologies). Mobile phase consists of 0.02 M […] with addition of 0.15% of n-decylamine (pH = 7.4; constituent A) and methanol to which 0.25% of n-octanol was added (constituent B). The total flow rate was 0.4 mL/min, the injection volume was 1 μL, and the column temperature was maintained at 25 °C. The detection wavelength of 254 nm was chosen. One milligram of the sample was dissolved in 1 mL of methanol and diluted to the concentration 0.1 mg/mL with 50% methanol. Retention factors of the compound were measured under isocratic conditions in the range 20:80–50:50 (A:B; v/v), 5 values for each factor in duplicate. Linear regression analysis was performed and log kw7.4 values were calculated according to Equation (1). (1) logk=−Sϕ+logkw where log k represents a logarithm of individual isocratic factor, φ is the organic phase concentration, and S is a constant derived by linear regression analysis. The retention factor corresponding to the neutral form (log kw) was estimated from the apparent log kw7.4 by using Equation (2). (2) logkw=logkwapp+log(1+10^pKa−pH)

pKa [1]	log kw7.4 [2]	log kw [2]	melting point	Structure (SMILES)
6.39 ± 0.01	3.99 ± 0.02	4.03 ± 0.09	173 to 175 °C	CCCOCCOc1ccc(C(=O)OCC(O)CN2CCN(c3ccc(OC)cc3)CC2)cc1.Cl.Cl (stereo not drawn) [9c, 1-{2-Hydroxy-3-[(4-propoxyethoxybenzoyl)oxy]propyl}-4-(4-methoxyphenyl)piperazinediium dichloride]
6.5 ± 0.02	4.29 ± 0.03	4.34 ± 0.10	197 to 199 °C	CCCOCCOc1ccc(C(=O)OCC(O)CN2CCN(c3ccccc3)CC2)cc1.Cl.Cl (stereo not drawn) [9a, 1-{2-Hydroxy-3-[(4-propoxyethoxybenzoyl)oxy]propyl}-4-phenylpiperazinediium dichloride]
6.79 ± 0.02	4.11 ± 0.02	4.20 ± 0.09	143 to 146 °C	CCCOCCOc1ccc(C(=O)OCC(O)CN2CCN(c3ccccc3OC)CC2)cc1.Cl.Cl (stereo not drawn) [9b, 1-{2-Hydroxy-3-[(4-propoxyethoxybenzoyl)oxy]propyl}-4-(2-methoxyphenyl)piperazinediium dichloride]

Second part, the compound before the results:

Structure (SMILES)	pKa [1]	log kw7.4 [2]	log kw [2]	melting point
C=CCOCCOc1ccc(C(=O)OCC(O)CN2CCN(c3ccccc3OC)CC2)cc1.Cl.Cl (stereo not drawn) [7b, 1-{3-[(4-Allyloxyethoxybenzoyl)oxy]-2-hydroxypropyl}-4-(2-methoxyphenyl)piperazinediium dichloride]	6.88 ± 0.02	3.78 ± 0.02	3.89 ± 0.08	178 to 180 °C
C=CCOCCOc1ccc(C(=O)OCC(O)CN2CCN(c3ccccc3)CC2)cc1.Cl.Cl (stereo not drawn) [7a, 1-{3-[(4-Allyloxyethoxybenzoyl)oxy]-2-hydroxypropyl}-4-phenylpiperazinediium dichloride]	6.47 ± 0.02	3.97 ± 0.03	4.01 ± 0.09	185 to 187 °C
COc1ccc(N2CCN(CC(O)COC(=O)c3ccc(OCCOC(C)C)cc3)CC2)cc1.Cl.Cl (stereo not drawn) [8c, 1-{2-Hydroxy-3-[(4-isopropoxyethoxybenzoyl)oxy]propyl}-4-(4-methoxyphenyl)piperazinediium dichloride]	6.35 ± 0.02	3.90 ± 0.02	3.93 ± 0.06	193 to 195 °C
C=CCOCCOc1ccc(C(=O)OCC(O)CN2CCN(c3ccc(OC)cc3)CC2)cc1.Cl.Cl (stereo not drawn) [7c, 1-{3-[(4-Allyloxyethoxybenzoyl)oxy]-2-hydroxypropyl}-4-(4-methoxyphenyl)piperazinediium dichloride]	6.49 ± 0.02	3.67 ± 0.02	3.71 ± 0.08	170 to 173 °C
CC(C)OCCOc1ccc(C(=O)OCC(O)CN2CCN(c3ccccc3)CC2)cc1.Cl.Cl (stereo not drawn) [8a, 1-{2-Hydroxy-3-[(4-isopropoxyethoxybenzoyl)oxy]propyl}-4-phenylpiperazinediium dichloride]	6.49 ± 0.01	4.21 ± 0.01	4.25 ± 0.05	200 to 202 °C
COc1ccccc1N1CCN(CC(O)COC(=O)c2ccc(OCCOC(C)C)cc2)CC1.Cl.Cl (stereo not drawn) [8b, 1-{2-Hydroxy-3-[(4-isopropoxyethoxybenzoyl)oxy]propyl}-4-(2-methoxyphenyl)piperazinediium dichloride]	6.92 ± 0.01	4.03 ± 0.02	4.15 ± 0.07	154 to 156 °C
